Test results taken from ChEMBL document CHEMBL1909046, “DrugMatrix in vitro pharmacology data”.

Legend:
[1] = molecular target: T1, Alpha-1D adrenergic receptor (Homo sapiens, UniProt P25100); format: cell membranes, HEK293, Membrane; also: in other assays of this panel Not Active means under 50% inhibition at 10 µM
T1 sequence (P25100 whole entry): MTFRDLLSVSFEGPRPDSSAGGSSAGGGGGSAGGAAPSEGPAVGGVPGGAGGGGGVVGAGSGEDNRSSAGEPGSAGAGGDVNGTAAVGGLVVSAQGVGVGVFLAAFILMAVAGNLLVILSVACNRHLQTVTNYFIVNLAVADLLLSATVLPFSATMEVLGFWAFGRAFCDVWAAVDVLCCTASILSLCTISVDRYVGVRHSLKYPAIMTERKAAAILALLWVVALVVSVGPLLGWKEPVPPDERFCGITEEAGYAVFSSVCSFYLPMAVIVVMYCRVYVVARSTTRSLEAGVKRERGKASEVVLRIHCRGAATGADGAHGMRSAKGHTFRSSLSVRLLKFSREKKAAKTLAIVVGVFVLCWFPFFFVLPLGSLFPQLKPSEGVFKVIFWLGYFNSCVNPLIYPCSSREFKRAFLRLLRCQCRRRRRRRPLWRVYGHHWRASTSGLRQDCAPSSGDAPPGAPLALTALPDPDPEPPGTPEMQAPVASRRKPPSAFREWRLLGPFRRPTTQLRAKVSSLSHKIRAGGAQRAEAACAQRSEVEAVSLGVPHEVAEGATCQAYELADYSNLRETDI

[2] = DRUGMATRIX: Tumor Necrosis Factor (TNF), Non-Selective radioligand binding (ligand: [125I] TNF-alpha); format: cell membranes, Membrane; details: u-937; Not Active = under 50% inhibition at 10 µM
Endothelin-1 receptor = molecular target: T2, Endothelin-1 receptor (Homo sapiens, UniProt P25101); format: cell membranes, Membrane; details: cho-k1; also: in other assays of this panel Not Active means under 50% inhibition at 10 µM
T2 sequence (P25101 whole entry): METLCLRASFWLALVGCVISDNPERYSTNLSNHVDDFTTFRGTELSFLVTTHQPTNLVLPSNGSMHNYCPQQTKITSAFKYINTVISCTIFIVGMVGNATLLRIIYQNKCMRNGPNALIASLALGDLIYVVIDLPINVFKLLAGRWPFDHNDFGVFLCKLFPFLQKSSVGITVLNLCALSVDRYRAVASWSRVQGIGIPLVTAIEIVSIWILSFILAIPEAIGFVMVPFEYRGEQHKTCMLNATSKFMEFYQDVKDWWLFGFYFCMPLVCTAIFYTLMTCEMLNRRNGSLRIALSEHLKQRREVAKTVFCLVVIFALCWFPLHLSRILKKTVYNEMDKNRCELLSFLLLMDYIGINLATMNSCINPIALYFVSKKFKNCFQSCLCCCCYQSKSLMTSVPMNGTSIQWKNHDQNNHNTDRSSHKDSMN

Histamine H2 receptor = Histamine H2 receptor (Homo sapiens, UniProt P25021); format: cell membranes, CHO-K1, Membrane; also: in other assays of this panel Not Active means under 50% inhibition at 10 µM
Sequence of Histamine H2 receptor (P25021 whole entry): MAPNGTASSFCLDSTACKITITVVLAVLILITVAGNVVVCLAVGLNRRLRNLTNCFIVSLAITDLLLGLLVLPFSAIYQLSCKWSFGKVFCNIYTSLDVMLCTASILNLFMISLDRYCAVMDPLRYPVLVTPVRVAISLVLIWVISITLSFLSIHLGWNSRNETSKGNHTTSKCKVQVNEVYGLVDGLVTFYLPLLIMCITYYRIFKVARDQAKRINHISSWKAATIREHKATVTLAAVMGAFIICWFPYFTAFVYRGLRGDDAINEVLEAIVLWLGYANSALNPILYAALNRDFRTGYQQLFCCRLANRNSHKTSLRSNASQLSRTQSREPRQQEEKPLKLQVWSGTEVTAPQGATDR

Melanocortin receptor 3 = Melanocortin receptor 3 (Homo sapiens, UniProt P41968); format: cell membranes, Membrane; details: hek293; also: in other assays of this panel Not Active means under 50% inhibition at 10 µM
Sequence of Melanocortin receptor 3 (P41968 whole entry): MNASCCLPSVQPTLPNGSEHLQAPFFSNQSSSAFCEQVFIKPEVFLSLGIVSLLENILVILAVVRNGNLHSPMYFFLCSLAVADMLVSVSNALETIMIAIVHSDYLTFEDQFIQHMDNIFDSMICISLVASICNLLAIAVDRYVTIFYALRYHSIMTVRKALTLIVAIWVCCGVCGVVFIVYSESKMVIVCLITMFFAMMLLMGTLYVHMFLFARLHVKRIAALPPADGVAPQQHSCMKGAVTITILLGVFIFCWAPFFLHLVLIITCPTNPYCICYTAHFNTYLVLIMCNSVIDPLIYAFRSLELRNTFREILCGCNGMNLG

Melanocortin receptor 4 = Melanocortin receptor 4 (Homo sapiens, UniProt P32245); format: cell membranes, Membrane; details: hek293; also: in other assays of this panel Not Active means under 50% inhibition at 10 µM
Sequence of Melanocortin receptor 4 (P32245 whole entry): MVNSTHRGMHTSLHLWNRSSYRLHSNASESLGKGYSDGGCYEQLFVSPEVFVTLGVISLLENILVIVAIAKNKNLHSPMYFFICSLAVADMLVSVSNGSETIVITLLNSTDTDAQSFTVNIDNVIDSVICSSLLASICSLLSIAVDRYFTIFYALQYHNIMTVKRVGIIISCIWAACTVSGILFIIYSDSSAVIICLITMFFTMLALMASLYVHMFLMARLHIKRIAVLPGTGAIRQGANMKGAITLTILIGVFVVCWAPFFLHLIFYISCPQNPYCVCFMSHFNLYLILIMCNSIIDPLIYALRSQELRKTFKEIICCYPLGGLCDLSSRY

[3] = DRUGMATRIX: Potassium Channel [KATP] radioligand binding (ligand: [3H] Glyburide); format: cell membranes, Membrane; details: hit-t15; Not Active = under 50% inhibition at 10 µM

| Compound | IC50 ([1]; hek293) | IC50 [2] | Ki [2] | IC50 (Endothelin-1 receptor) | IC50 (Histamine H2 receptor; cho-k1) | IC50 (Melanocortin receptor 3) | IC50 (Melanocortin receptor 4) | IC50 [3] | Ki [3] | IC50 ([1]; read-out: IC50) [nM] | Ki ([1]; read-out: Ki) [nM] | IC50 (Histamine H2 receptor; read-out: IC50) [nM] | Ki (Histamine H2 receptor; read-out: Ki) [nM] |
| --- | --- | --- | --- | --- | --- | --- | --- | --- | --- | --- | --- | --- | --- |
| Cn1c(=O)c2c(ncn2CC2OCCO2)n(C)c1=O [DOXOFYLLINE] | Not Active | Not Active | Not Active | Not Active | Not Active | Not Active | Not Active | Not Active | Not Active |  |  |  |  |
| COc1cccc2c1C(=O)c1c(O)c3c(c(O)c1C2=O)C[C@@](O)(C(=O)CO)C[C@@H]3O[C@H]1C[C@H](N)[C@H](O)[C@H](C)O1 [DOXORUBICIN] | Not Active | Not Active | Not Active | Not Active | Not Active | Not Active | Not Active | Not Active | Not Active |  |  |  |  |
| COc1cccc2c1C(=O)c1c(O)c3c(c(O)c1C2=O)C[C@@](O)(C(=O)CO)C[C@@H]3O[C@H]1C[C@H](N)[C@@H](O)[C@H](C)O1 [EPIRUBICIN] | Not Active | Not Active | Not Active | Not Active | Not Active | Not Active | Not Active | Not Active | Not Active |  |  |  |  |
| C[C@]12CC[C@@H]3c4ccc(OC(=O)c5ccccc5)cc4CC[C@H]3[C@@H]1CC[C@@H]2O [ESTRADIOL BENZOATE] | Not Active | Not Active | Not Active | Not Active | Not Active | Not Active | Not Active | Not Active | Not Active |  |  |  |  |
| C[C@]12CC[C@@H]3c4ccc(O)cc4CC[C@H]3[C@@H]1CC[C@@H]2O [ESTRADIOL] | Not Active | Not Active | Not Active | Not Active | Not Active | Not Active | Not Active | Not Active | Not Active |  |  |  |  |
| CC[C@@H](CO)NCCN[C@@H](CC)CO [ETHAMBUTOL] | Not Active | Not Active | Not Active | Not Active | Not Active | Not Active | Not Active | Not Active | Not Active |  |  |  |  |
| CC1(C)O[C@@H]2C[C@H]3[C@@H]4C[C@H](F)C5=CC(=O)C=C[C@]5(C)[C@H]4[C@@H](O)C[C@]3(C)[C@]2(C(=O)CO)O1 [FLUNISOLIDE] | Not Active | Not Active | Not Active | Not Active | Not Active | Not Active | Not Active | Not Active | Not Active |  |  |  |  |
| CC1(C)O[C@@H]2C[C@H]3[C@@H]4C[C@H](F)C5=CC(=O)C=C[C@]5(C)[C@@]4(F)[C@@H](O)C[C@]3(C)[C@]2(C(=O)CO)O1 [FLUOCINOLONE ACETONIDE] | Not Active | Not Active | Not Active | Not Active | Not Active | Not Active | Not Active | Not Active | Not Active |  |  |  |  |
| CC1(C)O[C@@H]2C[C@H]3[C@@H]4C[C@H](F)C5=CC(=O)CC[C@]5(C)[C@H]4[C@@H](O)C[C@]3(C)[C@]2(C(=O)CO)O1 [FLURANDRENOLIDE] | Not Active | Not Active | Not Active | Not Active | Not Active | Not Active | Not Active | Not Active | Not Active |  |  |  |  |
| CN(C)c1ccc(C(=C2C=CC(=[N+](C)C)C=C2)c2ccc(N(C)C)cc2)cc1.[Cl-] [GENTIAN VIOLET] |  | Not Active | Not Active | Not Active |  | Not Active | Not Active | Not Active | Not Active | 1980 | 973 | 1160 | 1140 |
| Cc1ccc(S(=O)(=O)NC(=O)NN2CC3CCCC3C2)cc1 (stereo not given) [GLICLAZIDE] | Not Active | Not Active | Not Active | Not Active | Not Active | Not Active | Not Active | Not Active | Not Active |  |  |  |  |
| NC(=O)NO [HYDROXYUREA] | Not Active | Not Active | Not Active | Not Active | Not Active | Not Active | Not Active | Not Active | Not Active |  |  |  |  |
